Reference: ChEMBL document CHEMBL5154919, “New ZW4864 Derivatives as Small-Molecule Inhibitors for the β-Catenin/BCL9 Protein-Protein Interaction” (ACS Med Chem Lett, 2022)

Tests used:
[1] = molecular target: T1, beta-catenin-B-cell lymphoma 9 protein complex (Homo sapiens, UniProt P35222); test: Inhibition of full length beta-catenin (1 to 781 residues) (unknown origin) expressed in Escherichia coli BL21 (DE3)-N-terminal biotinylated human BCL9 (350 to 375 residues) protein-protein interaction incubated for 1 hr by Alphascreen assay
T1 sequence (P35222 whole entry): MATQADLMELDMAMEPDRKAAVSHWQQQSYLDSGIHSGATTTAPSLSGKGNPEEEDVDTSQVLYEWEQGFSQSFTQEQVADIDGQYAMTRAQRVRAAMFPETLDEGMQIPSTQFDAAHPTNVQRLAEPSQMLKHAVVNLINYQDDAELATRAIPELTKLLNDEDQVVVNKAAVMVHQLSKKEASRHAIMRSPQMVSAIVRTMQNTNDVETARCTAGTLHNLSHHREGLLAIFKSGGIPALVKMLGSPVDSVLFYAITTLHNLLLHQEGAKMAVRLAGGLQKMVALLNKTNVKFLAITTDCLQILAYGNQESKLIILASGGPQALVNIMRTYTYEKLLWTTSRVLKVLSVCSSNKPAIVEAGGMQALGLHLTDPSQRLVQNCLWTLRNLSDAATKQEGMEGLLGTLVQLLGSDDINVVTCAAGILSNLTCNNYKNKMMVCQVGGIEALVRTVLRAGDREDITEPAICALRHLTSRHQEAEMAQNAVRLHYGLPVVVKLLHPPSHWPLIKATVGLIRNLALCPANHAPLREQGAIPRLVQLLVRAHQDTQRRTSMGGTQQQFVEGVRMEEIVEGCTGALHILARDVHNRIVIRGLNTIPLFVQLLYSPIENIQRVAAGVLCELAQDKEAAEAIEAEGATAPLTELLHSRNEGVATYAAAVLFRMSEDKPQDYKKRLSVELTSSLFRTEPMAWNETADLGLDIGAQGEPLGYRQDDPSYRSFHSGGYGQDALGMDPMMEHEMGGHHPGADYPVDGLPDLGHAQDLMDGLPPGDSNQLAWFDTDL
T1 sequence (O00512 whole entry): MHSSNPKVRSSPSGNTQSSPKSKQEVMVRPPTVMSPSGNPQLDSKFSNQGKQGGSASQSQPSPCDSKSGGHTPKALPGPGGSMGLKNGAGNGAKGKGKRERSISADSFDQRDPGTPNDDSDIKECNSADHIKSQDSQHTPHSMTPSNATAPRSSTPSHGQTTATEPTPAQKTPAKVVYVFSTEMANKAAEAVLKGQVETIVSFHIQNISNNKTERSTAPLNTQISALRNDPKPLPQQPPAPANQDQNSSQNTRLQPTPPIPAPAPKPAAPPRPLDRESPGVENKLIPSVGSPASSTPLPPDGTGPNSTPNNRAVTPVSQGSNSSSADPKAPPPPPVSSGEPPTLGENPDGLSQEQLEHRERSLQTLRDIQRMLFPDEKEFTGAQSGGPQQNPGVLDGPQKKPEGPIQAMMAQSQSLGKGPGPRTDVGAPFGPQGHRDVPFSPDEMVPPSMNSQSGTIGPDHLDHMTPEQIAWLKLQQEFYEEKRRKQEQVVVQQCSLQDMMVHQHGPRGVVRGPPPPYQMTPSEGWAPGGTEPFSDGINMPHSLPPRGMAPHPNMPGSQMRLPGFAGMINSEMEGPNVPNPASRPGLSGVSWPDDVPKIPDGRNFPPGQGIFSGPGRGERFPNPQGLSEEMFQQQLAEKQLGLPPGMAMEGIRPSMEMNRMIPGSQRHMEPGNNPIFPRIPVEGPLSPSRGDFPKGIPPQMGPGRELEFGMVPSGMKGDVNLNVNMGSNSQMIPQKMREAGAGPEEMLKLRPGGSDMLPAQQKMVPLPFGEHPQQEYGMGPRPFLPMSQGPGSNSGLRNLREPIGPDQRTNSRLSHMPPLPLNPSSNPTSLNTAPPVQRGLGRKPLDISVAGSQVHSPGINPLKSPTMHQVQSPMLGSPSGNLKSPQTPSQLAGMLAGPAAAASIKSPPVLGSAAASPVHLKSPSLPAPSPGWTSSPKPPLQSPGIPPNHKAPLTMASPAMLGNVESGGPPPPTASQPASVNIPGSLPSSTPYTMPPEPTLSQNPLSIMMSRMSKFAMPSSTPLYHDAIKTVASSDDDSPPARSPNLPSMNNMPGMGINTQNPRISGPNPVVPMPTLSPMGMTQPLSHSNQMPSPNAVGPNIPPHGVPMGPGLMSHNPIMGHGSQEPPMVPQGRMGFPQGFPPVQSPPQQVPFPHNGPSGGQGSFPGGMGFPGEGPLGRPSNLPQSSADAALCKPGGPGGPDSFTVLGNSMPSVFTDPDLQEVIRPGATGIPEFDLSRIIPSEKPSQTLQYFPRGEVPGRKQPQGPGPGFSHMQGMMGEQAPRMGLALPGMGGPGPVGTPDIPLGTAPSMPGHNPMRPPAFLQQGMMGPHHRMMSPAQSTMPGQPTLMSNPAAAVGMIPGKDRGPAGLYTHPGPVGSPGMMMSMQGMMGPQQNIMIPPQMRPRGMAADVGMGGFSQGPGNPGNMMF

[2] = Inhibition of Wnt/beta-catenin transactivation signalling in human SW480 cells by TOPFlash reporter gene assay; format: cell-based
HCT-116 = test: Antiproliferative activity against human HCT-116 cells assessed as inhibition of cell growth measured by MTS method; format: functional, cell-based
MDA-MB-231 = test: Antiproliferative activity against human MDA-MB-231 cells assessed as inhibition of cell growth measured by MTS method; format: functional, cell-based
MCF-10A = test: Antiproliferative activity against human MCF-10A cells assessed as inhibition of cell growth measured by MTS method; format: functional, cell-based
MDA-MB-468 = test: Antiproliferative activity against human MDA-MB-468 cells assessed as inhibition of cell growth measured by MTS method; format: functional, cell-based
SW480 = test: Antiproliferative activity against human SW480 cells assessed as inhibition of cell growth measured by MTS method; format: functional, cell-based
CYP3A4 = CYP3A4 (Homo sapiens, UniProt P08684); test: Inhibition of CYP3A4 in human liver microsomes using Midazolam as substrate at 10 uM in presence of NADPH incubated for 10 mins; format: ADME, Microsome; conditions: probe midazolam
CYP1A2 = molecular target: T2, CYP1A2 (Homo sapiens, UniProt P05177); test: Inhibition of CYP1A2 in human liver microsomes using phenacetin at 10 uM in presence of NADPH incubated for 10 mins; format: ADME, Microsome; conditions: probe phenacetin
T2 sequence (P05177 whole entry): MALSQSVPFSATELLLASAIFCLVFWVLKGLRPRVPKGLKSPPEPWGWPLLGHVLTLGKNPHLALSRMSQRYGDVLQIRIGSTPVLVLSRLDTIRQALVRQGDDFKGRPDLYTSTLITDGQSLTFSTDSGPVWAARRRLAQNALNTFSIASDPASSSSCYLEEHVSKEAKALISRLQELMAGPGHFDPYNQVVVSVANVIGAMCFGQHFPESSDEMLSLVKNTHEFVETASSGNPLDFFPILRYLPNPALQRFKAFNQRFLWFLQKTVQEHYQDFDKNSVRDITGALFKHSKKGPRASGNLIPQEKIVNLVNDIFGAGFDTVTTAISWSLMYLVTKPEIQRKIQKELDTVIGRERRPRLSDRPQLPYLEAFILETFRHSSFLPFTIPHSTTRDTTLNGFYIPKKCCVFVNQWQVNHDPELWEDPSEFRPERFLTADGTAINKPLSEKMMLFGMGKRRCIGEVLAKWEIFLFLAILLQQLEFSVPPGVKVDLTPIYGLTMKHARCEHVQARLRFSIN

CYP2D6 = CYP2D6 (Homo sapiens, UniProt P10635); test: Inhibition of CYP2D6 in human liver microsomes using bufuralol as substrate at 10 uM in presence of NADPH incubated for 10 mins; format: ADME, Microsome; conditions: probe bufuralol
CYP2C9 = CYP2C9 (Homo sapiens, UniProt P11712); test: Inhibition of CYP2C9 in human liver microsomes using tolbutamide as substrate at 10 uM in presence of NADPH incubated for 10 mins; format: ADME, Microsome; conditions: probe tolbutamide
CYP2C9, sequence (P11712 whole entry): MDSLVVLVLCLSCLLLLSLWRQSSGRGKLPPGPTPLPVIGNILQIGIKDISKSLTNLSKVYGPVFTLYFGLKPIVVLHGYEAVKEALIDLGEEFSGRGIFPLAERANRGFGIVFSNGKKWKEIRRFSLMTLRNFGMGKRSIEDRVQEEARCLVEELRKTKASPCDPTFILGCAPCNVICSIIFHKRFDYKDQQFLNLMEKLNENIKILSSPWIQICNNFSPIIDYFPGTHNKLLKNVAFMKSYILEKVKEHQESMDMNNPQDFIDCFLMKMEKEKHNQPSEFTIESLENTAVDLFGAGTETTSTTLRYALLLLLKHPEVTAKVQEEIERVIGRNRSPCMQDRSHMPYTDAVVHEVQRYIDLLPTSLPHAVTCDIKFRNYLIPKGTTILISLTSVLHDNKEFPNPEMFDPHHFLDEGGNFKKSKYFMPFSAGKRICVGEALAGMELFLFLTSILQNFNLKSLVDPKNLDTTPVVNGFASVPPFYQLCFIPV

CYP2D6, sequence (P10635 whole entry): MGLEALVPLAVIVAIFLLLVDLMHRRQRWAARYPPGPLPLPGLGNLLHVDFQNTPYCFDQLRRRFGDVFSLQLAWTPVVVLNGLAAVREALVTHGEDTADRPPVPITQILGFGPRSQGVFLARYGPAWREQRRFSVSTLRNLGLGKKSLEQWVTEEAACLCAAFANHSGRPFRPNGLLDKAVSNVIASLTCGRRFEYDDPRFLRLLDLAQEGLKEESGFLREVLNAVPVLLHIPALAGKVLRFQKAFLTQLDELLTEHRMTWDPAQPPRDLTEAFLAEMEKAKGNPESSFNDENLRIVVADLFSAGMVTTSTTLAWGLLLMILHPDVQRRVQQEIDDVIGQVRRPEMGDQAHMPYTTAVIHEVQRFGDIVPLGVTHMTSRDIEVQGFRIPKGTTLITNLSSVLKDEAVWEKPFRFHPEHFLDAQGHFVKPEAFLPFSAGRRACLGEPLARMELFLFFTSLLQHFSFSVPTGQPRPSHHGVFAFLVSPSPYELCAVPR
CYP3A4, sequence (P08684 whole entry): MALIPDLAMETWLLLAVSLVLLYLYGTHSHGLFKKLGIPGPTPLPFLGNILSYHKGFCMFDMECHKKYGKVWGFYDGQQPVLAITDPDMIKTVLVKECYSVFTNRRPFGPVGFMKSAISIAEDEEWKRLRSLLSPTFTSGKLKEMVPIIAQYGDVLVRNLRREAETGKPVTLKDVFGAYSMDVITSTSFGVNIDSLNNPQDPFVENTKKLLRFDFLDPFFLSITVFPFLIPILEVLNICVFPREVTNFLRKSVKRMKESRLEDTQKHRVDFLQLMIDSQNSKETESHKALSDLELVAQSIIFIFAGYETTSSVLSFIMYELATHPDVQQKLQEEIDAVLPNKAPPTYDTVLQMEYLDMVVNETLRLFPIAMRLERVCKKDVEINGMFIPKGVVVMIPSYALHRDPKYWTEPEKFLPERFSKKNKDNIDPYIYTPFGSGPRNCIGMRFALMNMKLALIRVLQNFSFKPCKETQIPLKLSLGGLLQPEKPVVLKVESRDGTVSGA

IC50 [1] | Ki [1] | Structure (SMILES) | other results
23 µM | 21 µM | O=C(C(Oc1cccc(N2CCC[C@@H](C(=O)N(Cc3ccc(-c4cn[nH]c4)cc3)C3CC3)C2)c1)c1ccccc1)N1CCNCC1 (some centres not stated) | 
12 µM | 9.8 µM | CC(C)(Oc1cccc(N2CCC[C@@H](C(=O)N(Cc3ccc(-c4cn[nH]c4)cc3)C3CC3)C2)c1)C(=O)N1CCC2(CCNC2)C1 (some centres not stated) | 
38 µM | 31 µM | CC(C)(Oc1cccc(N2CCC[C@@H](C(=O)N(Cc3ccc(-c4cn[nH]c4)cc3)C3CC3)C2)c1)C(=O)N1CC2(CCNCC2)C1 | 
43 µM | 39 µM | O=C([C@@H]1CCCN(c2cccc(OC3(C(=O)N4CCNCC4)CCCC3)c2)C1)N(Cc1ccc(-c2cn[nH]c2)cc1)C1CC1 | 
7.6 µM | 6.8 µM | CC(C)(Oc1cccc(N2CCC[C@@H](C(=O)N(Cc3ccc(-c4cn[nH]c4)cc3)C3CCCC3)C2)c1)C(=O)N1CCNCC1 | 
12 µM | 11 µM | CC(C)(Oc1cccc(N2CCC[C@@H](C(=O)N(Cc3ccc(-c4cn[nH]c4)cc3)C3CCC3)C2)c1)C(=O)N1CCNCC1 | 
29 µM | 24 µM | O=C([C@@H]1CCCN(c2cccc(OC3(C(=O)N4CCNCC4)CC3)c2)C1)N(Cc1ccc(-c2cn[nH]c2)cc1)C1CC1 | 

More lines, now with the values behind:

Structure (SMILES) | IC50 [1] | Ki [1] | other results
CC(C)(Oc1cccc(N2CCC[C@@H](C(=O)N(Cc3ccc(-c4cccc5[nH]ncc45)cc3)C3CC3)C2)c1)C(=O)N1CCNCC1 | 2.5 µM | 2 µM | 
CC(C)(Oc1cccc(N2CCC[C@@H](C(=O)N(Cc3ccc(-c4cn[nH]c4)cc3)C3CC3)C2)c1)C(=O)N1CCC2(CNC2)C1 | 20 µM | 16 µM | 
CC(C)(Oc1cccc(N2CCC[C@@H](C(=O)N(Cc3ccc(-c4cn[nH]c4)cc3)C3CC3)C2)c1)C(=O)N1CC2(CNC2)C1 | 44 µM | 37 µM | 
CC(C)(Oc1cccc(N2CCC[C@@H](C(=O)N(Cc3ccc(-c4ccnc5[nH]ccc45)cc3)C3CC3)C2)c1)C(=O)N1CCNCC1 | 2.2 µM | 1.8 µM | IC50 [2]: 15 µM; IC50 (HCT-116): 7.7 µM; IC50 (MDA-MB-231): 6.5 µM; IC50 (MCF-10A): 29 µM; IC50 (MDA-MB-468): 5.5 µM; IC50 (SW480): 10 µM
CC(C)(Oc1cccc(N2CCC[C@@H](C(=O)N(Cc3ccc(-c4c[nH]c5ncccc45)cc3)C3CC3)C2)c1)C(=O)N1CCNCC1 | 0.96 µM | 0.85 µM | IC50 [2]: 11 µM; IC50 (HCT-116): 8.1 µM; IC50 (MDA-MB-231): 4.6 µM; IC50 (MCF-10A): 24 µM; IC50 (MDA-MB-468): 5 µM; IC50 (SW480): 9.7 µM
CC(C)(Oc1cccc(N2CCC[C@@H](C(=O)N(Cc3ccc(-c4cn[nH]c4)cc3)C3CC3)C2)c1)C(=O)N1C[C@H]2CNC[C@H]2C1 | 8.3 µM | 6.8 µM | 
CC(C)(Oc1cccc(N2CCC[C@@H](C(=O)N(Cc3ccc(-c4cn[nH]c4)cc3)CC3CC3)C2)c1)C(=O)N1CCNCC1 | 18 µM | 15 µM | 
CC(C)N(Cc1ccc(-c2cn[nH]c2)cc1)C(=O)[C@@H]1CCCN(c2cccc(OC(C)(C)C(=O)N3CCNCC3)c2)C1 | 8.9 µM | 8 µM | 
CC(C)(Oc1cccc(N2CCC[C@@H](C(=O)N(Cc3ccc(-c4cn[nH]c4)cc3)C3CC3)C2)c1)C(=O)N1CCNCC1 |  |  | inhibition at 10 min, 10 µM (CYP3A4): 96%; inhibition at 10 min, 10 µM (CYP1A2): 17%; inhibition at 10 min, 10 µM (CYP2D6): 73%; inhibition at 10 min, 10 µM (CYP2C9): 83%
CC(C)(Oc1cccc(N2CCC[C@@H](C(=O)NCc3ccc(-c4cn[nH]c4)cc3)C2)c1)C(=O)N1CCNCC1 | 81 µM | 73 µM | 
CN(Cc1ccc(-c2cn[nH]c2)cc1)C(=O)[C@@H]1CCCN(c2cccc(OC(C)(C)C(=O)N3CCNCC3)c2)C1 | 28 µM | 25 µM | 
CC(C)(Oc1cccc(N2CCC[C@@H](C(=O)N(Cc3ccc(-c4c[nH]c5ccccc45)cc3)C3CC3)C2)c1)C(=O)N1CCNCC1 | 1.4 µM | 1.2 µM | 
